Source: patent publication US20140275128A1, “METHOD OF PROVIDING OCULAR NEUROPROTECTION” (INOTEK PHARMACEUTICALS CORPORATION, priority 2013, published 2014)
Blank lines part the entries; values can stand above or below the compound they belong to.

Assays:
[1] = tested on: nerve fiber layer of the retina (RNFL); conditions: topical 0.2% solution, 12 months, compared to timolol; cited from earlier work
[2] = cited from earlier work; for study participants who discontinued the study due to adverse events: Low-Pressure Glaucoma Treatment Study
retinal ganglion cells [3] = conditions: nerve crush, acute and chronic ocular hypertension models; cited from earlier work
retinal ganglion cells [4] = assay: Ischemia-induced retinal ganglion cell death in Long-Evans rats (high IOP insult, histology); type: in vivo; conditions: topical; for percent of RGC protected from ischemic insult (FIG. 4): two drops before 60 min ischemia at 110 mmHg, Compound A 2.5% ophthalmic suspension or 0.2% brimonidine tartrate, histology at 7 days; for retinal thinning of inner retina (GCL, IPL) after high IOP (FIG. 2): versus healthy contralateral eye, 7 days
Protocol: Treatment groups of 10 male Long Evans rats, six to eight weeks of age, were anesthetized by i.p. injection of a combination of ketamine (80 mg/kg) and xylazine (8 mg/kg). Additional ketamine was administered as needed to maintain appropriate anesthetic depth, and body temperature was maintained by use of an isothermal pad placed under the animal. Once under anesthesia, topical anesthetic (0.5% proparacaine hydrochloride, single drop) was applied to the cornea of the right eye. […] Several minutes after the second treatment, the anterior chamber of the right eye was cannulated with a 30G needle connected to an elevated reservoir of sterile Hanks balanced salt solution with a fluid level 59 inches above eye level (equivalent to a hydrostatic pressure of 110 mmHg) behind a closed stopcock. Five minutes after the second treatment (fifteen minutes after application of topical anesthetic), the stopcock was opened, and the rise in pressure was directly visualized by inflation of the globe. Animals that suffered an injury to the iris or cornea (beyond the single entry point) were excluded from the study. Sixty minutes after inducing the rise in pressure, the ischemic injury was terminated by closing the stopcock and removing the cannula. The needle entry wound was sealed with veterinary tissue adhesive and the animals allowed to recover from anesthesia before being returned to housing.
Seven days after ischemic injury animals were sacrificed by CO2 inhalation and globes dissected with the proximal optic nerves intact. The anterior chamber was removed, and the eyes were fixed for 30 minutes in 4% paraformaldehyde/PBS, followed by overnight incubation in 30% sucrose. Fixed eyes were trimmed of additional connective tissue and cut along a sagittal plane to generate a flat face for embedding, and the exposed retinal edge was attached to the sclera with tissue adhesive. The eye was infiltrated with increasing strengths of JB-4 embedding medium (glycol methacrylate; GMA), followed by embedding in JB-4 at 4° C. for sagittal sectioning. Optic nerves were co-embedded with their paired retina for transverse sectioning. Embedded tissues were sectioned through or near the optic nerve head at a thickness of 2 μm, and collected on slides for further analysis.
For histological analysis of retinas, sections were stained with 1% toluidine blue in absolute ethanol for 40 seconds, and cover slipped for microscopic examination. Images were captured using cellSens Dimension software on an Olympus BX61 upright microscope with a motorized stage, using a 20× objective and a resolution of 169 nm/pixel, and stitched together using the multiple image alignment procedure of the software. Five locations were chosen at random from across the retina, avoiding areas of extreme curvature or extreme histological disruption, and the thickness of the retinal layers was assessed, as follows: ganglion cells (GCL; count of large, round nuclei in layer near retinal surface in 100 μm region centered on chosen location), inner plexiform layer (IPL; distance from nuclei in ganglion cell layer to nuclei in inner nuclear layer), inner nuclear layer (INL), outer plexiform layer (OPL; distance from nuclei in INL to nuclei in outer nuclear layer), outer nuclear layer (ONL), and total retinal thickness (TR distance from retinal surface above nerve fiber layer to edge of ONL). […]

A2A adenosine receptor = molecular target: T1, A2A adenosine receptor (Homo sapiens, UniProt P29274); assay: Adenosine A2A receptor binding, A1 > A2A selectivity; conditions: ratio Ki A2A / Ki A1
T1 construct: expressed in transfected cells; host or cells: CHO cells
T1 sequence (P29274 whole entry): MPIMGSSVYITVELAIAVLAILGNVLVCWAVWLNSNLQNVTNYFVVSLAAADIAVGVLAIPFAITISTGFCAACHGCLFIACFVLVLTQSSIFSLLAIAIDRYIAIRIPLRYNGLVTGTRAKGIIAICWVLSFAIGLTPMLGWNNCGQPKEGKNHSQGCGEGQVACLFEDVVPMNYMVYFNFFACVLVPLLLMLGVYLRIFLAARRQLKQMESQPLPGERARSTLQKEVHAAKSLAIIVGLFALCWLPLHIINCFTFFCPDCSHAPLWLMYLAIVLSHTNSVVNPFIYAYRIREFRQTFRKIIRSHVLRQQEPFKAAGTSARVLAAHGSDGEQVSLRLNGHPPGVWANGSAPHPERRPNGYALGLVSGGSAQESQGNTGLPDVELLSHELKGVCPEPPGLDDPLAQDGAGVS

SMILES: Brc1c(NC2=NCCN2)ccc2nccnc12 [brimonidine]
loss in thickness of the nerve fiber layer of the retina (RNFL) [1]: reduce the loss in thickness of the nerve fiber layer of the retina | loss of visual field ([2]; 0.2% brimonidine, mean 30.0 month follow up, low pressure glaucoma, compared to timolol control): slow the loss of visual field | study participants who discontinued the study due to adverse events [2]: 28.3% | RGC survival (retinal ganglion cells [3]): improved RGC survival | percent of RGC protected from ischemic insult (FIG. 4) (retinal ganglion cells [4]): around 80% | retinal thinning of inner retina (GCL, IPL) after high IOP (FIG. 2) (retinal ganglion cells [4]; two drops before ischemia): blocked

SMILES: O=[N+]([O-])OC[C@H]1O[C@@H](n2cnc3c(NC4CCCC4)ncnc32)[C@H](O)[C@@H]1O [Compound A, ((2R,3S,4R,5R)-5-(6-(cyclopentylamino)-9H-purin-9-yl)-3,4-dihydroxytetrahydrofuran-2-yl)methyl nitrate]
percent of RGC protected from ischemic insult (FIG. 4) (retinal ganglion cells [4]): 100% | percentage of protection across retinal layers (FIG. 3) (retinal ganglion cells [4]; two drops before ischemia, relative to vehicle and brimonidine): greater relative to the vehicle, and slightly greater than the effects of brimonidine | retinal thinning of inner retina (GCL, IPL) after high IOP (FIG. 2) (retinal ganglion cells [4]; two drops before ischemia): blocked

SMILES: CC(C)(C)NC[C@H](O)COc1nsnc1N1CCOCC1 [timolol]
study participants who discontinued the study due to adverse events [2]: 11.4%

A1 > A2A SELECTIVITY [KiA2(nm)/KiA1(nm)] (A2A adenosine receptor): >9434
SMILES: O=[N+]([O-])OC[C@H]1O[C@@H](n2cnc3c(NC4CCOC4)ncnc32)[C@H](O)[C@@H]1O (stereo partly drawn) [Compound D, ((2R,3S,4R,5R)-3,4-dihydroxy-5-(6-(tetrahydrofuran-3-ylamino)-9H-purin-9-yl)tetrahydrofuran-2-yl)methyl nitrate]
